Results published in the supplement of paper PMC10307832.

What was measured:
Experiment in all cases: relative viability (nuclei count vs DMSO), 5 days (fraction); higher = more cells survive
EHT 1864 = compound: C1COCCN1CC2=CC(=O)C(=CO2)OCCCCCSC3=C4C=CC(=CC4=NC=C3)C(F)(F)F [EHT 1864]
Summary of the method: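 After an overnight hold at 37 °C, lung cancer cell lines in 1536-well plates were pinned with five library-drug doses (not always all listed), each √10 from the next, on vehicle-anchored plates. The cells stayed 5 days without fresh medium, then a one-step fix, permeabilisation and Hoechst stain preceded 4× imaging and MetaXpress nuclear counts. A plate passed only with control CV under 25% and at least one doubling. Viability is the median, over plates, of treated-well nuclei relative to vehicle-well nuclei.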

EHT 1864 + Trametinib = compound: C1COCCN1CC2=CC(=O)C(=CO2)OCCCCCSC3=C4C=CC(=CC4=NC=C3)C(F)(F)F [EHT 1864] + CC(=O)Nc1cccc(-n2c(=O)n(C3CC3)c(=O)c3c(Nc4ccc(I)cc4F)n(C)c(=O)c(C)c32)c1 [Trametinib] (partner 0.02 µM)
Summary of the method: (§1)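 Lung cancer cell lines, seeded in 1536-well plates, were treated the following day by pin tool with a single drug or with five library-drug doses (not always all listed) in √10 steps on top of a fixed anchor-drug dose. Cells were fixed and nuclei stained in one step after 5 days, and nuclei were counted. Relative viability is the nuclei count for treated wells divided by that for vehicle wells, reported as medians of duplicate plates.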

EHT 1864 + Tozasertib = compound: C1COCCN1CC2=CC(=O)C(=CO2)OCCCCCSC3=C4C=CC(=CC4=NC=C3)C(F)(F)F [EHT 1864] + Cc1cc(Nc2cc(N3CCN(C)CC3)nc(Sc3ccc(NC(=O)C4CC4)cc3)n2)n[nH]1 [Tozasertib] (partner 0.1 µM)
Summary of the method: as §1

EHT 1864 + AZD7762 = compound: C1COCCN1CC2=CC(=O)C(=CO2)OCCCCCSC3=C4C=CC(=CC4=NC=C3)C(F)(F)F [EHT 1864] + NC(=O)Nc1cc(-c2cccc(F)c2)sc1C(=O)N[C@H]1CCCNC1 [AZD7762] (partner 0.2 µM)
Summary of the method: as §1

Row | Cell Line | relative viability (EHT 1864; 0.04 µM) | relative viability (EHT 1864; 0.1265 µM) | relative viability (EHT 1864; 0.4 µM) | relative viability (EHT 1864; 1.265 µM) | relative viability (EHT 1864; 4 µM) | relative viability (EHT 1864 + Trametinib; first compound 0.04 µM) | relative viability (EHT 1864 + Trametinib; first compound 0.1265 µM) | relative viability (EHT 1864 + Trametinib; first compound 0.4 µM) | relative viability (EHT 1864 + Trametinib; first compound 1.265 µM) | relative viability (EHT 1864 + Trametinib; first compound 4 µM) | relative viability (EHT 1864 + Tozasertib; first compound 0.04 µM) | relative viability (EHT 1864 + Tozasertib; first compound 0.1265 µM) | relative viability (EHT 1864 + Tozasertib; first compound 0.4 µM) | relative viability (EHT 1864 + Tozasertib; first compound 1.265 µM) | relative viability (EHT 1864 + Tozasertib; first compound 4 µM) | relative viability (EHT 1864 + AZD7762; first compound 0.04 µM) | relative viability (EHT 1864 + AZD7762; first compound 0.1265 µM) | relative viability (EHT 1864 + AZD7762; first compound 0.4 µM) | relative viability (EHT 1864 + AZD7762; first compound 1.265 µM) | relative viability (EHT 1864 + AZD7762; first compound 4 µM)
1 | HCC-44 | 0.987 | 0.867 | 0.97 | 0.935 | 0.974 | 1.08 | 0.977 | 0.961 | 0.967 | 1.11 | 0.919 | 0.827 | 0.878 | 0.771 | 0.926 | 1.01 | 0.896 | 0.934 | 1.03 | 1.01
2 | NCI-H2342 | 0.778 | 0.856 | 0.803 | 0.929 | 1.03 | 0.71 | 0.681 | 0.759 | 0.874 | 0.935 | 0.541 | 0.394 | 0.452 | 0.491 | 0.533 | 0.426 | 0.438 | 0.472 | 0.51 | 0.492
3 | PC-14 | 1.01 | 0.823 | 1.04 | 1.03 | 0.939 | 0.741 | 0.672 | 0.796 | 0.68 | 0.88 | 0.607 |  | 0.555 | 0.623 | 0.53 | 0.368 | 0.248 | 0.394 | 0.304 | 0.433
4 | HOP-62 | 1.05 |  | 1 | 1.04 | 1.07 | 0.4 |  | 0.362 | 0.38 | 0.415 | 0.391 |  | 0.376 | 0.333 | 0.374 | 0.584 |  | 0.466 | 0.485 | 0.794
5 | NCI-H1793 | 0.729 | 0.781 | 0.929 | 0.928 | 0.963 | 0.37 | 0.356 | 0.465 | 0.428 | 0.434 | 0.294 |  | 0.341 |  | 0.285 | 0.609 | 0.458 | 0.496 | 0.193 | 0.298
6 | NCI-H1666 | 1.05 | 0.879 | 0.957 | 0.916 | 1.08 | 0.961 | 0.886 | 0.8 | 0.884 | 0.862 | 0.646 | 0.591 | 0.543 | 0.647 | 0.554 | 0.826 | 0.747 | 0.915 | 0.997 | 1.1
7 | NCI-H1355 | 0.949 | 0.732 | 0.965 | 0.984 | 0.987 | 0.461 | 0.39 | 0.393 | 0.452 | 0.412 | 0.558 | 0.452 | 0.582 | 0.391 | 0.464 | 0.876 | 0.65 | 0.725 | 0.688 | 0.68
8 | HCC-827 | 1.03 | 0.821 | 1.07 | 0.99 | 1.02 | 0.618 | 0.611 | 0.597 | 0.555 | 0.548 | 0.415 | 0.348 | 0.408 | 0.449 | 0.4 | 0.198 | 0.22 | 0.228 | 0.252 | 0.201
9 | HARA | 0.962 | 0.782 | 1.1 | 1.14 | 1.05 | 0.729 |  | 0.908 | 0.782 | 1.14 | 0.118 | 0.127 | 0.132 | 0.098 | 0.117 | 0.626 |  | 0.329 | 0.262 | 0.328
10 | HCC-366 | 1.01 | 0.804 | 1.01 | 1.07 | 1.06 | 0.38 | 0.3 | 0.318 | 0.413 | 0.285 | 0.13 | 0.168 | 0.0914 | 0.0579 | 0.0542 | 0.262 | 0.232 | 0.248 | 0.28 | 0.243
11 | NCI-H322M | 0.95 | 0.921 | 0.942 | 1.05 | 0.923 | 0.525 | 0.525 | 0.544 | 0.595 | 0.595 | 0.477 | 0.457 | 0.448 | 0.461 | 0.51 | 0.601 | 0.501 | 0.589 | 0.577 | 0.667
12 | NCI-H2347 | 1.07 | 0.75 | 1.01 | 0.966 | 1.03 | 0.222 | 0.281 | 0.251 | 0.276 | 0.463 | 0.606 | 0.446 | 0.501 |  | 0.562 | 0.776 | 0.654 | 0.621 | 0.727 | 0.792
13 | NCI-H1975 | 0.886 | 0.954 | 0.887 | 0.841 | 0.895 | 0.375 | 0.329 | 0.296 | 0.225 | 0.327 | 0.852 | 0.756 | 0.599 |  | 0.207 | 0.733 | 0.717 | 0.676 | 0.642 | 0.68
14 | NCI-H522 | 0.845 | 0.939 | 0.996 | 1 | 0.855 | 0.756 | 0.917 | 0.836 | 0.722 | 0.756 | 0.583 | 0.471 | 0.561 | 0.503 | 0.541 | 0.844 | 0.774 | 0.802 | 0.973 | 1.07
15 | A-427 | 0.975 | 0.922 | 1.03 | 0.956 | 0.882 | 0.698 | 0.837 | 0.758 | 0.812 | 0.736 | 0.198 | 0.232 | 0.208 | 0.189 | 0.217 | 0.835 | 0.775 | 0.738 | 0.762 | 0.791
16 | LCLC-97TM1 | 1.01 | 0.762 | 1.01 | 0.881 | 0.903 | 0.2 | 0.178 | 0.193 | 0.183 | 0.236 | 0.289 | 0.196 | 0.181 | 0.19 | 0.227 | 0.275 | 0.257 | 0.152 | 0.223 | 0.234
17 | HCC-15 | 1.03 |  | 0.976 | 0.941 | 1 | 0.404 |  | 0.362 | 0.362 | 0.41 | 0.377 |  | 0.398 | 0.319 | 0.247 | 1.01 |  | 1.29 | 1.36 | 1.19
18 | NCI-H647 | 1.01 | 0.775 | 1.03 | 1.02 | 0.908 | 0.437 | 0.353 | 0.604 | 0.429 | 0.464 | 0.218 | 0.169 | 0.414 | 0.175 | 0.132 | 0.621 | 0.296 | 0.661 | 0.44 | 0.461
19 | NCI-H1651 | 0.944 | 0.958 | 0.918 | 0.949 | 0.98 | 0.832 | 0.827 | 0.822 | 0.817 | 0.808 | 0.631 | 0.705 | 0.549 | 0.479 | 0.523 | 0.396 | 0.439 | 0.469 | 0.482 | 0.556
20 | NCI-H1734 | 1.07 | 0.702 | 1.03 | 1.09 | 0.906 | 0.781 | 0.709 | 0.643 | 0.592 | 0.61 | 0.282 |  | 0.265 | 0.273 | 0.259 | 0.65 | 0.427 | 0.537 | 0.611 | 0.618
21 | NCI-H3122 | 0.99 | 0.98 | 0.994 | 0.999 | 0.945 | 0.219 | 0.288 | 0.248 | 0.202 | 0.219 | 0.358 | 0.275 | 0.398 | 0.398 | 0.392 | 0.882 | 0.808 | 0.911 | 0.985 | 0.878
22 | CAL-12T | 1.02 | 0.902 | 0.991 | 0.963 | 0.887 | 0.35 | 0.287 | 0.333 | 0.399 | 0.39 | 0.39 | 0.294 | 0.302 | 0.292 | 0.216 | 0.689 | 0.543 | 0.624 | 0.517 | 0.516
23 | HCC-78 | 0.968 | 0.907 | 0.923 | 0.922 | 1.13 | 0.633 | 0.66 | 0.842 | 0.645 | 0.777 | 0.432 | 0.236 | 0.278 | 0.335 | 0.563 | 0.82 | 0.59 | 0.67 | 0.602 | 0.422
24 | NCI-H2085 | 0.988 | 0.897 | 0.987 | 1.01 | 0.903 | 0.417 | 0.533 | 0.514 | 0.604 | 0.543 | 0.8 |  | 0.791 | 0.641 | 0.576 | 0.962 | 0.645 | 0.973 | 0.987 | 0.942
